# Where two headings read alike, the source gives them in different places.
# Key:
# [1] = from COC(=O)[C@H](Cc1ccc(OC)c(B2OC(C)(C)C(C)(C)O2)c1)NC(=O)[C@H](C)NC(=O)[C@@H](NC(=O)OC(C)(C)C)c1ccc(OC)c(I)c1; cc_pd bond; PdCl2(dppf); acetonitrile; 70.3 mM; 44.0 °C; 3.0 h
# SpsB = target: T1, SpsB (Staphylococcus aureus, UniProt P0A070); experiment: Inhibition of SpsB enzyme activity (fluorescence-based assay, bacterial membrane fraction); type: biochemical
# T1 construct: using a bacterial membrane fraction as a source of SpsB; from tissue
# T1 sequence (P0A070 1-191): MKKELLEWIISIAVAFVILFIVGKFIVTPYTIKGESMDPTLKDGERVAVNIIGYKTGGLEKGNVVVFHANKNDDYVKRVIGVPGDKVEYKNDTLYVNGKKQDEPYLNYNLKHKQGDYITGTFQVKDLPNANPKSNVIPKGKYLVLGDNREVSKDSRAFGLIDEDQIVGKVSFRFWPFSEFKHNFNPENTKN
# Summary of the method: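 Membrane fraction from bacteria supplied SpsB (0.6 mg/mL final protein), added last to start reactions with 20 μM lipopeptide substrate decanoyl-K(DABCYL)-TPTAKA↓ASKKD-D(EDANS)-NH2 (Km≈5 μM). Cleavage was followed as rising fluorescence, excitation 340/emission 460 nm.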
# [2] = test system: MB 5393 (COL), a methicillin-resistant S. aureus strain; experiment: Determination of minimum and synergistic inhibitory concentration; type: cell-based; conditions: for SIC: presence of imipenem (4 μg/mL); for MIC: Staphylococcus aureus
# Summary of the method: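 Broth microdilution: two-fold compound dilutions (final 64 to 0.0313 μg/mL) tested with and without subinhibitory imipenem (4 μg/mL) against MRSA COL at ~5×10^5 CFU/mL, 37°C, 22-24 hr stationary. MIC is lowest concentration preventing visible growth without imipenem; SIC same with imipenem.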
# MRSA strain COL = experiment: Checkerboard studies with imipenem; type: cell-based, Staphylococcus aureus; conditions: combined with Imipenem, FIG. 1
# Protocol: FIG. 1: An SpsB inhibitor and Imipenem synergize to inhibit bacterial growth in vitro. The MIC of SpsB inhibitor on the MRSA strain COL was assessed by varying the concentration of the compound (0.016-16 μg/ml) in the absence and presence of various concentrations of Imipenem (0.5-32 μg/ml) and FIC values were generated for both compounds.
# The checkerboard method is the technique most frequently used to assess antimicrobial combinations in vitro. See Antibiotics in Laboratory Medicine, Victor Lorian ed., 2005). The checkerboard comprises a two-dimensional dilution scheme: columns in which each well contains the same amount of Drug A being two-fold diluted along the x-axis, and rows in which each well contains the same amount of Drug B being two-fold diluted on the Y-axis. The result is that each well contains a unique combination of the two drugs being tested. Also tested is the antimicrobial activity of each agent singly.
# Imipenem was two-fold serially diluted along the Y-axis of 96-well U-bottom microtiter dishes (Fisher Scientific) in microbiological growth media (either brain heart infusion broth or cation-adjusted Mueller-Hinton broth +2% NaCl). […]
# In this representation, data are expressed as fractional inhibitory concentrations (FIC), defined as the ratio between the MIC of one compound in the presence of the other, over its MIC alone. […]
# [3] = test system: Staphylococcus aureus (strain B, MRSA COL); experiment: Disseminated MRSA infection mouse model; type: in vivo, mice BALB/c
# Protocol: (§1) Female mice BALB/c mice (20-25 g) were rendered neutropenic via intraperitoneal injection of cyclophosphamide (Mead Johnson Pharmaceuticals) on Day −4 (250 mg/kg, disseminated) or Days −4/−1 (150/100 mg/kg, deep thigh) prior to experimental infection. Neutropenic mice were infected on Day 0 via intraperitoneal (disseminated) or intramuscular (deep thigh) injection of 0.1 ml containing ˜1-5×10^4 CFU Staphylococcus aureus (strain B, MRSA COL). Linezolid (Zyvox IV solution, Bell Medical) was employed as an assay control. Fifteen minutes post infection, increasing doses of Example 3 (20, 40 and 80 mg/kg) or vehicle were administered subcutaneously (SC) TID with or without Imipenem/Cilastatin (6/50 mg/kg SC TID, disseminated; 10/50 mg/kg SC TID, deep thigh). Twenty four hours post dosing, mice were euthanized and infected kidneys (disseminated) or thighs (deep thigh) were aseptically removed, placed in 4 ml sterile phosphate buffered saline (Fisher Scientific), and homogenized using a Polytron (Brinkmann Instruments). Homogenates were serially 100-fold diluted in 9.9 ml sterile saline and plated on Mannitol Salt Agar plates. Plates were incubated at 35° C. for 48 hours and colony forming units (CFU) of bacteria remaining per thigh were determined.
# [4] = test system: Staphylococcus aureus (strain B, MRSA COL); experiment: Deep thigh MRSA infection mouse model; type: in vivo, mice BALB/c
# Protocol: as §1
# [5] = MRSA COL, absence of imipenem, 22 hours, read-out: MIC
SMILES,IC50 (SpsB) [nM],"SIC ([2]; MRSA COL, 22 hours)","MIC [2, 5] [µg/mL]","MIC ([2]; MRSA, 22 h) [µg/mL]",also measured
COC(=O)[C@@H]1Cc2ccc(OC)c(c2)-c2cc(ccc2OC)[C@H](NC(=O)OC(C)(C)C)C(=O)N[C@@H](C)C(=O)N1,–,–,–,–,"ring closure, yield of all isomers [1]: 20%"
"CCCc1ccc(-c2ccc(C(=O)NCCC(=O)N[C@@H](CCCCN)C(=O)N(C)[C@@H]3C(=O)N[C@@H](C)C(=O)N[C@H](C(=O)O)Cc4ccc(O)c(c4)-c4cc3ccc4O)cc2)cc1.O=C(O)C(F)(F)F [EXAMPLE 3, (5S)-6-[[(7S,10S,13S)-13-carboxy-3,18-dihydroxy-10-methyl-8,11-dioxo-9,12-diazatricyclo[13.3.1.1^2,6]icosa-1(19),2(20),3,5,15,17-hexaen-7-yl](methyl)amino]-6-oxo-5-[(3-{[(4′-propylbiphenyl-4-yl)carbonyl]amino}propanoyl)amino]hexan-1-aminium trifluoroacetate]",< 10,H (H: SIC 0.062-1),< 1,–,"synergy in isobologram (FIC) of bacterial growth (MRSA strain COL): synergistic effect; effect on MRSA COL bacterial burden ([3]; Example 3 alone, 20, 40 and 80 mg/kg SC TID, kidneys, relative to vehicle, FIG. 2A): negligible anti-bacterial effects; reduction in bacterial burden ([3]; co-administered with Imipenem/Cilastatin 6/50 mg/kg SC TID, disseminated): 2-3 log; effect on MRSA COL bacterial burden ([4]; Example 3 alone, 20, 40 and 80 mg/kg SC TID, thighs, relative to vehicle, FIG. 2B): negligible anti-bacterial effects; reduction in bacterial burden ([4]; co-administered with Imipenem/Cilastatin 10/50 mg/kg SC TID, deep thigh): 2-3 log"
CCCCCCCCCc1ccc(-c2ccc(C(=O)NCCC(=O)N[C@@H](CCCN)C(=O)N(C)C3C(=O)N[C@@H](C)C(=O)N[C@H](C(=O)O)Cc4ccc(O)c(c4)-c4cc3ccc4O)cc2)cc1 (stereo partly drawn) [EXAMPLE 24],< 10,G (G: SIC <0.0625),–,< 1,–
CCCCCCCCCCc1ccc2cc(C(=O)NCCC(=O)N[C@@H](CCCC(=O)O)C(=O)N(C)[C@@H]3C(=O)N[C@@H](C)C(=O)N[C@H](C(=O)O)Cc4ccc(O)c(c4)-c4cc3ccc4O)ccc2c1 [EXAMPLE 60],10 to 50,G (G: SIC <0.0625),1 to 8,–,–
C[C@@H]1NC(=O)[C@@H](N(C)C(=O)[C@H](CCCCN)NC(=O)CCNC(=O)c2ccc(-c3ccc(CC4CCCCC4)cc3)cc2)c2ccc(O)c(c2)-c2cc(ccc2O)C[C@@H](C(=O)O)NC1=O [EXAMPLE 27],< 10,G (G: SIC <0.0625),–,< 1,–
CCCCCCCCCc1ccc(-c2cnc(C(=O)NCCC(=O)N[C@@H](CCCCN)C(=O)N(C)[C@@H]3C(=O)N[C@@H](C)C(=O)N[C@H](C(=O)O)Cc4ccc(O)c(c4)-c4cc3ccc4O)nc2)cc1 [EXAMPLE 63],10 to 50,G (G: SIC <0.0625),–,< 1,–
CCCCCCCCCc1ccc(-c2ccc(C(=O)NCCC(=O)N3C[C@H](N)C[C@H]3C(=O)N(C)[C@@H]3C(=O)N[C@@H](C)C(=O)N[C@H](C(=O)O)Cc4ccc(O)c(c4)-c4cc3ccc4O)cc2)cc1 [EXAMPLE 40],< 10,G (G: SIC <0.0625),–,< 1,–
"C[C@@H]1NC(=O)[C@@H](N(C)C(=O)C(CCCCN)NC(=O)CCNC(=O)c2ccc(-c3ccc(-c4ccccc4)cc3)cc2)c2ccc(O)c(c2)-c2cc(ccc2O)C[C@@H](C(=O)O)NC1=O.O=C(O)C(F)(F)F (stereo partly drawn) [EXAMPLE 7, 6-[[(7S,10S,13S)-13-carboxy-3,18-dihydroxy-10-methyl-8,11-dioxo-9,12-diazatricyclo[13.3.1.1^2,6]icosa-1(19),2(20),3,5,15,17-hexaen-7-yl](methyl)amino]-6-oxo-5-({3-[(1,1′:4′,1″-terphenyl-4-ylcarbonyl)amino]propanoyl}amino)hexan-1-aminium trifluoroacetate]",10 to 50,H (H: SIC 0.062-1),< 1,–,–

# Source: patent publication US20130244929A1 (priority 2010, published 2013)
